Laboratory results: patent publication US20200239530A1, “COMPOUNDS AND METHODS OF MODULATING PROTEIN DEGRADATION” (Vividion Therapeutics, Inc., priority 2017, published 2020)
Where two headings read alike, the source gives them in different places.

Tests used:
Type in all cases: binding
[1] = target: T1, RNF25 E3 ubiquitin-protein ligase RNF25 (Homo sapiens, UniProt Q96BH1); experiment: Cysteine liganding, probe competition; design: endogenous in cells
T1 sequence (Q96BH1 1-459): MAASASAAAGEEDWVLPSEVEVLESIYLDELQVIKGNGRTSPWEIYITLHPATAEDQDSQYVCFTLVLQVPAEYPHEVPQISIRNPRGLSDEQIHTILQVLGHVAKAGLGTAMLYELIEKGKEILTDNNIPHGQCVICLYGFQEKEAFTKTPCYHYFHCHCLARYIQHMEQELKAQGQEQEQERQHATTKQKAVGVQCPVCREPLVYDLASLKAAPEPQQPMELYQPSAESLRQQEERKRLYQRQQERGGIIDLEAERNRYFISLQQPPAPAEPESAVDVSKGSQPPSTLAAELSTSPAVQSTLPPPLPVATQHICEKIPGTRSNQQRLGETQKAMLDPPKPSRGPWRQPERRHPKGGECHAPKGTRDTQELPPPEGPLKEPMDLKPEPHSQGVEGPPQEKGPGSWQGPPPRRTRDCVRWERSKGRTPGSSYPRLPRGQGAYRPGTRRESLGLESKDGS
Protocol: (§1) Cells were resuspended in cold PBS on ice and sonicated with a probe sonicator to achieve lysis. 200 μL of lysate containing 5 mg/ml proteome was treated with 2 μL of 100× compound stock in a 2-mL deep-well plate. The treated lysate was subsequently incubate at 25° C. for 1 hr with shaking at 600 rpm. The treated lysate was further incubated with 2 μL of 10 mM desthiobiotin iodoacetamide probe at 25° C. for 1 hr with shaking at 600 rpm. Next, the lysate was further treat with 20 μL of solution of PBS containing 11 mM MgSO4 and 2.5% Turbonuclease stock and incubated at 25° C. for 20 minutes with shaking at 600 rpm. 1.7 mL ice-cold acetone was added to each well and incubated at −20° C. for 2 hr, followed by max speed (4200 rpm) spin for 45 min. Acetone was then decanted and the plates were blotted to remove acetone. The plates were then dried in open air for 20 minutes. After drying, the plates were then covered with foil seal and stored at −80° C. overnight.
(§2) The next day, samples were re-suspended in 90 μL of solution of 9M urea, 50 mM ammonium bicarbonate and 10 mM DTT by incubating at 65C for 20 min with shaking at 1500 rpm. Next, samples were cooled to 37° C. and then 10 μL of 500 mM iodoacetamide solution (92.48 mg/ml) was added. The samples were then incubated at 37° C. for 30 min with shaking at 600 rpm.
(§3) ZEBA desalting plates were equilibrated 4 times using 250 μL of 2M urea, 50 mM ammonium bicarbonate solution followed by centrifugation at 1500 rpm for 2 minutes. After equilibration was complete, samples were applied to ZEBA desalting plate and spin at 1500 rpm for 2 min on top of 1 mL 96-well deep-well collection plate to buffer exchange samples. 4 μL of solution containing 25 mM CaCl2 and 0.25 mg/mL trypsin was added to the plate and the plate was then incubated at 37° C. for 2 hrs with shaking at 600 rpm. 300 μL of solution containing 5% high-capacity streptavidin agarose slurry in 25 mM Tris-HCl pH 7.5, 150 mM NaCl, and 0.1% NP-40 then added. The plate was incubated at 25° C. for 2 hrs with shaking at 600 rpm. Samples were transferred to 25 μm filter plate and spin at 1000 rpm for 2 min. Samples were then washed 3 times with 0.75 mL of wash buffer (25 mM Tris-HCl pH 7.5, 150 mM NaCl, and 0.1% NP-40) followed by washing 3 times with 0.75 mL PBS, and then 4 times with 0.75 mL water. After the washing step, samples were eluted into polypropylene 96-well plate by addition of 250 µL of 50% MeCN/water, 0.1% formic acid and allowed to gravity drip for 10 min, followed by centrifugation at 1000 rpm for 2 min. Speedvac was used to dry the plates at about 45° C. for […]. Then the plates were covered with foil seal and stored at −20° C.
(§4) Samples were resuspended by addition of 20 μl of 12.5% ACN, 0.1% formic acid solution, covered with foil seal, and incubated at 42° C. for 10 minutes with shaking at 600 rpm. Then add 30 μL of 0.1% formic acid solution was added and the plate was covered and incubated at 42° C. for 10 minutes with shaking at 600 rpm. Seal plate was then sealed with a 96-well silicon mat for analysis.

[2] = target: ANAPC16 Anaphase-promoting complex subunit 16 (Homo sapiens, UniProt Q96DE5); experiment: Cysteine liganding, probe competition; design: endogenous in cells
Protocol: as §1, §2, §3, §4

Q8NEG5 = target: T2, Q8NEG5 (Homo sapiens, UniProt Q8NEG5); experiment: Cysteine liganding, probe competition (Table 2B)
T2 construct: endogenous in cells; whole-cell lysate
T2 sequence (Q8NEG5 1-633): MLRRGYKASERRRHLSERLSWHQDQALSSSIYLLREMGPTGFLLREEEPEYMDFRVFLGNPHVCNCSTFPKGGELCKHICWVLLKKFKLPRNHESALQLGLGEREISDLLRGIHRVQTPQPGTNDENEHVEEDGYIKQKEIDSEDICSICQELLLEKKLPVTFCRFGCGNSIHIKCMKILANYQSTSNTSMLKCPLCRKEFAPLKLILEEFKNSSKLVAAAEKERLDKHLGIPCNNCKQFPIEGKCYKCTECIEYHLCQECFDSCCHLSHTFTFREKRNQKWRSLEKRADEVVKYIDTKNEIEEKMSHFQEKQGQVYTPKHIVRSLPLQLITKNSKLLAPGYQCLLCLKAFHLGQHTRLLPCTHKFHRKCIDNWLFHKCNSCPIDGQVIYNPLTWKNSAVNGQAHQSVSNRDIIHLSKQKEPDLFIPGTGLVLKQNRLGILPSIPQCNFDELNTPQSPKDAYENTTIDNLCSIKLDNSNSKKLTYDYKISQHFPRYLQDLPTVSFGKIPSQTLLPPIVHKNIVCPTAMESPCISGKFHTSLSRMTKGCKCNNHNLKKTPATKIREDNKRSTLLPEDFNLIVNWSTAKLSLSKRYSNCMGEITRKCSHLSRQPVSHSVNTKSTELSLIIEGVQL
Description: The following 96-well sample prep protocol was used for sample preparation.

COc1ccc2c(c1)CCCN2C(=O)CCl [KB02]
Liganded ([1]; RNF25 Res# 417, uniprot Q96BH1): YES
inhibition at 100 µM ([2]; 100 uM, UniProt Q96DE5, read-out: KB02_100 uM_percent_inhibition): 46%
inhibition at 500 µM ([2]; 500 uM, UniProt Q96DE5, read-out: KB02_500 uM_percent_inhibition): 85%
Liganded ([2]; ANAPC16 Res# 55, uniprot Q96DE5): YES
inhibition at 500 µM (Q8NEG5; read-out: KB02_500 uM_percent_inhibition): 35%

C=CC(=O)N(c1ccccc1)c1ccc(Br)cc1 [KB05]
inhibition at 100 µM ([1]; 100 uM, UniProt Q96BH1, read-out: percent_inhibition): 11%
inhibition at 100 µM ([2]; 100 uM, UniProt Q96DE5, read-out: KB05_100 uM_percent_inhibition): 37%
inhibition at 500 µM ([2]; 500 uM, UniProt Q96DE5, read-out: KB05_500 uM_percent_inhibition): 83%
inhibition at 500 µM (Q8NEG5; read-out: KB05_500 uM_percent_inhibition): 16%

O=C(CCl)Nc1cc(C(F)(F)F)cc(C(F)(F)F)c1 [KBO3]
100 ave ([1]; uniprot Q96BH1): 14.3
500 Max ([1]; uniprot Q96BH1): 62.0
500 ave ([1]; uniprot Q96BH1): 62.0
100 Max ([1]; uniprot Q96BH1, unit assumed): 14.3%
KB03_100 uM_percent_inhibition ([2]; 100 uM, UniProt Q96DE5): 52%
KB03_500 uM_percent_inhibition ([2]; 500 uM, UniProt Q96DE5): 82%
500 Max ([2]; uniprot Q96DE5): 36.5
100 Max ([2]; uniprot Q96DE5, unit assumed): 20.4%
KB03_500 uM_percent_inhibition (Q8NEG5; 500 uM): 8%
